The results in this text go back to patent publication US9730937B2, “RAF kinase modulator compounds and methods of use thereof” (AMBIT BIOSCIENCES CORPORATION, priority 2008, dated 2017).

Like-named read-outs stand apart in the source and are kept apart here.

The subject of this test is panel of 290 distinct kinases (321 in the larger panel), excluding mutant variants.
[1] abbreviates: kinase selectivity score, value marked * (larger kinase panel), class symbols.
[2] abbreviates: kinase selectivity score, 290 distinct kinases, class symbols.
[3] abbreviates: asterisk: panel of 321 distinct kinases.

With `COc1cc2ncnc(Oc3cccc(NC(=O)Nc4cc(C(C)(C)F)no4)c3)c2cc1OCCCS(C)(=O)=O` [Ex 42, 1-(3-(2-fluoropropan-2-yl)isoxazol-5-yl)-3-(3-(7-methoxy-6-(3-(methylsulfonyl)propoxy)quinazolin-4-yloxy)phenyl)urea], the S35 result under setting [1] is listed as “C* (0.20 < C ≦ 0.40)”.

Take `CCOc1cc2ncnc(Sc3cccc(NC(=O)Nc4cc(C(C)(C)C)on4)c3)c2cc1OC` [Ex 50, 1-(5-tert-butylisoxazol-3-yl)-3-[3-(7-ethoxy-6-methoxyquinazolin-4-ylthio)phenyl]urea]: the S35 result under setting [2] is recorded as “B (0.10 < B ≦ 0.20)”.

In the case of `COc1cc(NC(=O)Nc2cccc(Sc3ncnc4cc(OC)c(OC)cc34)c2)cc(C(F)(F)F)c1` [Ex 115, 1-(3-(6,7-dimethoxyquinazolin-4-ylthio)phenyl)-3-(3-methoxy-5-(trifluoromethyl)phenyl)urea], under setting [2], the S35 entry is given as “C (0.20 < C ≦ 0.40)”.

With `COc1cc(NC(=O)Nc2cccc(Oc3ncnc4cc(OC)c(OC)cc34)c2)cc(C(F)(F)F)c1` [Ex 116, 1-(3-(6,7-dimethoxyquinazolin-4-yloxy)phenyl)-3-(3-methoxy-5-(trifluoromethyl)phenyl)urea], under setting [2], the S35 entry is reported as “B (0.10 < B ≦ 0.20)”.

With `COCCOc1cc(NC(=O)Nc2cccc(Oc3ncnc4cc(OCCOC)c(OC)cc34)c2)cc(C(F)(F)F)c1` [Ex 117, 1-(3-(6-methoxy-7-(2-methoxyethoxy)quinazolin-4-yloxy)phenyl)-3-(3-(2-methoxyethoxy)-5-(trifluoromethyl)phenyl)urea], under setting [2], the S35 result is listed as “C (0.20 < C ≦ 0.40)”.

On to `COc1cc2ncnc(Oc3cccc(NC(=O)Nc4cc(C(C)(C)C#N)no4)c3)c2cc1OC` [Ex 125, 1-(3-(2-cyanopropan-2-yl)isoxazol-5-yl)-3-(3-(6,7-dimethoxyquinazolin-4-yloxy)phenyl)urea], for which the S35 entry under setting [1] was “C* (0.20 < C ≦ 0.40)”.

With `COc1cc2ncnc(Oc3cccc(NC(=O)Nc4cc(C(C)(C)F)no4)c3)c2cc1OC` [Ex 126, 1-(3-(6,7-dimethoxyquinazolin-4-yloxy)phenyl)-3-(3-(2-fluoropropan-2-yl)isoxazol-5-yl)urea], under setting [2], the S35 entry is listed as “C (0.20 < C ≦ 0.40)”.

Turning to `COc1cc2ncnc(Oc3cccc(NC(=O)Nc4cc(C5(C(F)(F)F)CC5)nn4-c4ccccc4)c3)c2cc1OC` [Ex 137, 1-(3-(6,7-dimethoxyquinazolin-4-yloxy)phenyl)-3-(1-phenyl-3-(1-(trifluoromethyl)cyclopropyl)-1H-pyrazol-5-yl)urea], the S35 entry under setting [1] was “D* (D > 0.40)”.

In the case of `COc1cc2ncnc(Oc3cccc(NC(=O)Nc4ccc(C(F)(F)F)c(F)c4)c3)c2cc1OC` [Ex 150, 1-(3-(6,7-dimethoxyquinazolin-4-yloxy)phenyl)-3-(3-fluoro-4-(trifluoromethyl)phenyl)urea], under setting [1], the S35 entry is on record as “C* (0.20 < C ≦ 0.40)”.

With `COc1cc2ncnc(Oc3cccc(NC(=O)Nc4cc(C(C)(CF)CF)no4)c3)c2cc1OC` [Ex 159, 1-[3-(1,3-difluoro-2-methylpropan-2-yl)isoxazol-5-yl]-3-[3-(6,7-dimethoxyquinazolin-4-yloxy]phenyl)urea], under setting [1], the S35 result is recorded as “D* (D > 0.40)”.

As for `COc1cc2ncnc(Sc3cccc(NC(=O)Nc4ccc(C(F)(F)F)cc4)c3)c2cc1OC` [Ex 184, 1-(3-(6,7-dimethoxyquinazolin-4-ylthio)phenyl)-3-(4-(trifluoromethyl)phenyl)urea], the S35 entry under setting [1] was “C* (0.20 < C ≦ 0.40)”.

Turning to `COCCOc1cc2ncnc(Oc3cccc(NC(=O)Nc4cc(-c5ccccc5)on4)c3)c2cc1OC` [Ex 203, 1-(3-(6-methoxy-7-(2-methoxyethoxy)quinazolin-4-yloxy)phenyl)-3-(5-phenylisoxazol-3-yl)urea], the S35 result under setting [2] was “B (0.10 < B ≦ 0.20)”.

In the case of `COCCOc1cc2ncnc(Oc3cccc(NC(=O)Nc4cc(C(C)C)on4)c3)c2cc1OC` [Ex 206, 1-(5-isopropylisoxazol-3-yl)-3-(3-(6-methoxy-7-(2-methoxyethoxy)quinazolin-4-yloxy)phenyl)urea], the S35 result under setting [3] is recorded as “C* (0.20 < C ≦ 0.40)”.

With `COCCOc1cc2ncnc(Oc3cccc(NC(=O)Nc4cc(C5CCCC5)no4)c3)c2cc1OC` [Ex 207, 1-(3-cyclopentylisoxazol-5-yl)-3-(3-(6-methoxy-7-(2-methoxyethoxy)quinazolin-4-yloxy)phenyl)urea], under setting [3], the S35 result is recorded as “C* (0.20 < C ≦ 0.40)”.

In the case of `COCCOc1cc2ncnc(Oc3cccc(NC(=O)Nc4cc(C(F)(F)F)n(C)n4)c3)c2cc1OC` [Ex 208, 1-{3-[6-methoxy-7-(2-methoxyethoxy)quinazolin-4-yloxy]phenyl}-3-[1-methyl-5-(trifluoromethyl)-1H-pyrazol-3-yl]urea], the S35 result under setting [3] is listed as “C* (0.20 < C ≦ 0.40)”.

Consider `COCCOc1cc2ncnc(Oc3cccc(NC(=O)Nc4cc(C(C)(C)C)nn4C)c3)c2cc1OC` [Ex 209, 1-(3-tert-butyl-1-methyl-1H-pyrazol-5-yl)-3-(3-(6-methoxy-7-(2-methoxyethoxy)quinazolin-4-yloxy)phenyl)urea], for which the S35 entry under setting [3] is recorded as “C* (0.20 < C ≦ 0.40)”.

Consider `COCCOc1cc2ncnc(Oc3cccc(NC(=O)Nc4cc(C(C)(C)C)nn4-c4ccccc4)c3)c2cc1OC` [Ex 210, 1-(3-tert-butyl-1-phenyl-1H-pyrazol-5-yl)-3-(3-(6-methoxy-7-(2-methoxyethoxy)quinazolin-4-yloxy)phenyl)urea], for which the S35 result under setting [3] is “D* (D > 0.40)”.

In the case of `COCCOc1cc2ncnc(Oc3cccc(NC(=O)Nc4cc(C(C)(F)F)no4)c3)c2cc1OC` [Ex 211, 1-(3-(1,1-difluoroethyl)isoxazol-5-yl)-3-(3-(6-methoxy-7-(2-methoxyethoxy)quinazolin-4-yloxy)phenyl)urea], the S35 result under setting [3] was “C* (0.20 < C ≦ 0.40)”.

As for `COCCOc1cc2ncnc(Oc3cccc(NC(=O)Nc4cc(C(C)(CF)CF)on4)c3)c2cc1OC` [Ex 213, 1-[5-(1,3-difluoro-2-methylpropan-2-yl)isoxazol-3-yl]-3-{3-[6-methoxy-7-(2-methoxyethoxy)quinazolin-4-yloxy]phenyl}urea], the S35 entry under setting [3] is “D* (D > 0.40)”.

On to `COCCOc1cc2ncnc(Oc3cccc(NC(=O)Nc4cc(C5CC5)no4)c3)c2cc1OC` [Ex 214, 1-(3-cyclopropylisoxazol-5-yl)-3-(3-(6-methoxy-7-(2-methoxyethoxy)quinazolin-4-yloxy)phenyl)urea], for which the S35 entry under setting [3] is listed as “C* (0.20 < C ≦ 0.40)”.

As to `COCCOc1cc2ncnc(Oc3cccc(NC(=O)Nc4cc(C(C)C)no4)c3)c2cc1OC` [Ex 215, 1-(3-isopropylisoxazol-5-yl)-3-(3-(6-methoxy-7-(2-methoxyethoxy)quinazolin-4-yloxy)phenyl)urea], under setting [3], the S35 entry is given as “C* (0.20 < C ≦ 0.40)”.

For `COCCOc1cc2ncnc(Oc3cccc(NC(=O)Nc4cc(C5CCOCC5)no4)c3)c2cc1OC` [Ex 216, 1-(3-(6-methoxy-7-(2-methoxyethoxy)quinazolin-4-yloxy)phenyl)-3-(3-(tetrahydro-2H-pyran-4-yl)isoxazol-5-yl)urea], the S35 entry under setting [3] was “B* (0.10 < B ≦ 0.20)”.

As to `COCCOc1cc2ncnc(Oc3cccc(NC(=O)Nc4cc(C(C)(C)COC)on4)c3)c2cc1OC` [Ex 217, 1-(5-(1-methoxy-2-methylpropan-2-yl)isoxazol-3-yl)-3-(3-(6-methoxy-7-(2-methoxyethoxy)quinazolin-4-yloxy)phenyl)urea], the S35 result under setting [3] is given as “C* (0.20 < C ≦ 0.40)”.
